From the NIST ThermoML archive (doi:10.1016/j.jct.2008.05.014)
Numbers after ± are expanded uncertainties.

Assay: xn = mol fraction of the nth substance listed
Details: Liquid; for speed of sound: Pulse-echo method

CCCCCCCCCCCC [dodecane] + CCCCCCC
Details | mass density [kg/m3] | speed of sound [m/s]
292.85 K, 15200 kPa, x2 = 0.4999 | – | 1334.1 ± 2.4
292.85 K, 15200 kPa, x2 = 0.97 | – | 1263.4 ± 2.4
292.85 K, 30390 kPa, x2 = 0.4999 | – | 1411.6 ± 2.4
292.85 K, 30390 kPa, x2 = 0.97 | – | 1348.3 ± 2.4
292.85 K, 45590 kPa, x2 = 0.4999 | – | 1480.8 ± 2.4
292.85 K, 60790 kPa, x2 = 0.4999 | – | 1543.7 ± 2.5
292.85 K, 60790 kPa, x2 = 0.97 | – | 1490.4 ± 2.5
292.85 K, 75990 kPa, x2 = 0.4999 | – | 1602.4 ± 2.5
292.85 K, 75990 kPa, x2 = 0.97 | – | 1552 ± 2.5
292.85 K, 91180 kPa, x2 = 0.4999 | – | 1656.6 ± 2.5
292.85 K, 91180 kPa, x2 = 0.97 | – | 1609.5 ± 2.6
292.85 K, 101320 kPa, x2 = 0.4999 | – | 1690.5 ± 2.6
292.86 K, 15200 kPa, x2 = 0.5003 | – | 1333.8 ± 2.4
292.86 K, 15200 kPa, x2 = 0.9391 | – | 1268.7 ± 2.4
292.86 K, 30390 kPa, x2 = 0.1014 | – | 1449.6 ± 2.4
292.86 K, 30390 kPa, x2 = 0.5003 | – | 1411.4 ± 2.4
292.86 K, 30410 kPa, x2 = 0.9391 | – | 1352.9 ± 2.4
292.86 K, 45590 kPa, x2 = 0.1014 | – | 1516.2 ± 2.4
292.86 K, 45590 kPa, x2 = 0.5003 | – | 1480.8 ± 2.4
292.86 K, 45590 kPa, x2 = 0.9391 | – | 1427.3 ± 2.4
292.86 K, 45590 kPa, x2 = 0.97 | – | 1423.1 ± 2.4
292.86 K, 60790 kPa, x2 = 0.1014 | – | 1577 ± 2.5
292.86 K, 60790 kPa, x2 = 0.5003 | – | 1543.8 ± 2.5
292.86 K, 60790 kPa, x2 = 0.9391 | – | 1494.1 ± 2.5
292.86 K, 75990 kPa, x2 = 0.1014 | – | 1633.6 ± 2.5
292.86 K, 75990 kPa, x2 = 0.5003 | – | 1602.5 ± 2.5
292.86 K, 75990 kPa, x2 = 0.9391 | – | 1555.3 ± 2.5
292.86 K, 91180 kPa, x2 = 0.1014 | – | 1686.1 ± 2.5
292.86 K, 91180 kPa, x2 = 0.5003 | – | 1656.8 ± 2.5
292.86 K, 91180 kPa, x2 = 0.9391 | – | 1612.7 ± 2.6
292.86 K, 101320 kPa, x2 = 0.1014 | – | 1719.2 ± 2.6
292.86 K, 101320 kPa, x2 = 0.9391 | – | 1647.3 ± 2.6
292.86 K, 101320 kPa, x2 = 0.97 | – | 1645.4 ± 2.6
292.87 K, 15200 kPa, x2 = 0 | – | 1384.9 ± 2.4
292.87 K, 15200 kPa, x2 = 0.1014 | – | 1375.7 ± 2.4
292.87 K, 15200 kPa, x2 = 0.3007 | – | 1355.3 ± 2.4
292.87 K, 15200 kPa, x2 = 0.7007 | – | 1306.2 ± 2.4
292.87 K, 30390 kPa, x2 = 0 | – | 1457.9 ± 2.4
292.87 K, 30390 kPa, x2 = 0.3007 | – | 1430.9 ± 2.4
292.87 K, 30390 kPa, x2 = 0.7007 | – | 1386.2 ± 2.4
292.87 K, 45590 kPa, x2 = 0 | – | 1524.1 ± 2.4
292.87 K, 45590 kPa, x2 = 0.3007 | – | 1498.8 ± 2.4
292.87 K, 45590 kPa, x2 = 0.7007 | – | 1457.9 ± 2.4
292.87 K, 60790 kPa, x2 = 0 | – | 1584.5 ± 2.5
292.87 K, 60790 kPa, x2 = 0.3007 | – | 1560.6 ± 2.5
292.87 K, 60790 kPa, x2 = 0.7007 | – | 1522.8 ± 2.5
292.87 K, 75990 kPa, x2 = 0 | – | 1640.7 ± 2.5
292.87 K, 75990 kPa, x2 = 0.3007 | – | 1618.5 ± 2.5
292.87 K, 75990 kPa, x2 = 0.7007 | – | 1582.4 ± 2.5
292.87 K, 91180 kPa, x2 = 0 | – | 1692.8 ± 2.5
292.87 K, 91180 kPa, x2 = 0.3007 | – | 1671.5 ± 2.5
292.87 K, 91180 kPa, x2 = 0.7007 | – | 1638 ± 2.6
292.87 K, 101320 kPa, x2 = 0 | – | 1725.8 ± 2.6
292.87 K, 101320 kPa, x2 = 0.3007 | – | 1705.1 ± 2.6
292.87 K, 101320 kPa, x2 = 0.5003 | – | 1691 ± 2.6
292.87 K, 101320 kPa, x2 = 0.7007 | – | 1672.6 ± 2.6
292.87 K, 101320 kPa, x2 = 0.8496 | – | 1658.6 ± 2.6
292.88 K, 15200 kPa, x2 = 0.8496 | – | 1284 ± 2.4
292.88 K, 75990 kPa, x2 = 0.8496 | – | 1566.3 ± 2.5
292.89 K, 101 kPa, x2 = 0 | – | 1299.5 ± 1.6
292.89 K, 101 kPa, x2 = 0.3002 | – | 1267.5 ± 1.6
292.89 K, 101 kPa, x2 = 0.3996 | – | 1255 ± 1.6
292.89 K, 101 kPa, x2 = 0.6 | – | 1226.8 ± 1.6
292.89 K, 101 kPa, x2 = 0.7002 | – | 1210.7 ± 1.6
292.89 K, 101 kPa, x2 = 0.8995 | – | 1174.4 ± 1.6
292.89 K, 30390 kPa, x2 = 0.8496 | – | 1366.5 ± 2.4
292.89 K, 45590 kPa, x2 = 0.8496 | – | 1439.7 ± 2.4
292.89 K, 60790 kPa, x2 = 0.8496 | – | 1505.9 ± 2.5
292.89 K, 91180 kPa, x2 = 0.8496 | – | 1623.3 ± 2.6
292.9 K, 101 kPa, x2 = 0.8 | – | 1193.4 ± 1.6
292.91 K, 101 kPa, x2 = 0.1007 | – | 1289.6 ± 1.6
292.91 K, 101 kPa, x2 = 0.2001 | – | 1279 ± 1.6
292.91 K, 101 kPa, x2 = 0.5002 | – | 1241.3 ± 1.6
293.15 K, 101 kPa, x2 = 0 | 748.921 ± 0.63 | –
293.15 K, 101 kPa, x2 = 0.0991 | 744.788 ± 0.63 | –
293.15 K, 101 kPa, x2 = 0.2008 | 740.186 ± 0.64 | –
293.15 K, 101 kPa, x2 = 0.2998 | 735.319 ± 0.65 | –
293.15 K, 101 kPa, x2 = 0.3996 | 729.97 ± 0.65 | –
293.15 K, 101 kPa, x2 = 0.5 | 724.072 ± 0.66 | –
293.15 K, 101 kPa, x2 = 0.6 | 717.632 ± 0.67 | –
293.15 K, 101 kPa, x2 = 0.7005 | 710.489 ± 0.68 | –
293.15 K, 101 kPa, x2 = 0.7995 | 702.66 ± 0.69 | –
293.15 K, 101 kPa, x2 = 0.8486 | 698.428 ± 0.69 | –
293.15 K, 101 kPa, x2 = 0.8988 | 693.851 ± 0.7 | –
293.15 K, 101 kPa, x2 = 0.9498 | 688.947 ± 0.7 | –
298.14 K, 30390 kPa, x2 = 0.97 | – | 1329.4 ± 2.4
298.14 K, 30410 kPa, x2 = 0.9391 | – | 1333.2 ± 2.4
298.14 K, 45590 kPa, x2 = 0.9391 | – | 1408.7 ± 2.4
298.14 K, 45590 kPa, x2 = 0.97 | – | 1405.4 ± 2.4
298.14 K, 60790 kPa, x2 = 0.9391 | – | 1476.6 ± 2.5
298.14 K, 60790 kPa, x2 = 0.97 | – | 1473.9 ± 2.5
298.14 K, 75990 kPa, x2 = 0.97 | – | 1536.2 ± 2.5
298.14 K, 91180 kPa, x2 = 0.9391 | – | 1596.4 ± 2.6
298.14 K, 91180 kPa, x2 = 0.97 | – | 1594.1 ± 2.6
298.14 K, 101320 kPa, x2 = 0.9391 | – | 1632.6 ± 2.6
298.14 K, 101320 kPa, x2 = 0.97 | – | 1630.6 ± 2.6
298.15 K, 101 kPa, x2 = 0 | 745.269 ± 0.63 | –
298.15 K, 101 kPa, x2 = 0.0991 | 741.128 ± 0.64 | –
298.15 K, 101 kPa, x2 = 0.2008 | 736.497 ± 0.64 | –
298.15 K, 101 kPa, x2 = 0.2998 | 731.58 ± 0.65 | –
298.15 K, 101 kPa, x2 = 0.5 | 720.233 ± 0.67 | –
298.15 K, 101 kPa, x2 = 0.7005 | 706.501 ± 0.68 | –
298.15 K, 101 kPa, x2 = 0.7995 | 698.598 ± 0.69 | –
298.15 K, 101 kPa, x2 = 0.8486 | 694.34 ± 0.7 | –
298.15 K, 101 kPa, x2 = 0.8988 | 689.718 ± 0.7 | –
298.15 K, 101 kPa, x2 = 0.9498 | 684.775 ± 0.71 | –
298.15 K, 15200 kPa, x2 = 0.5003 | – | 1314.6 ± 2.4
298.15 K, 15200 kPa, x2 = 0.9391 | – | 1247.1 ± 2.4
298.15 K, 15200 kPa, x2 = 0.97 | – | 1242.9 ± 2.4
298.15 K, 30390 kPa, x2 = 0.4999 | – | 1393.4 ± 2.4
298.15 K, 30390 kPa, x2 = 0.5003 | – | 1393.3 ± 2.4
298.15 K, 45590 kPa, x2 = 0.1014 | – | 1499.1 ± 2.4
298.15 K, 45590 kPa, x2 = 0.4999 | – | 1464 ± 2.4
298.15 K, 45590 kPa, x2 = 0.5003 | – | 1464.1 ± 2.4
298.15 K, 45590 kPa, x2 = 0.7007 | – | 1440.8 ± 2.4
298.15 K, 60790 kPa, x2 = 0.1014 | – | 1560.5 ± 2.5
298.15 K, 60790 kPa, x2 = 0.3007 | – | 1544.4 ± 2.5
298.15 K, 60790 kPa, x2 = 0.4999 | – | 1527.7 ± 2.5
298.15 K, 60790 kPa, x2 = 0.5003 | – | 1528 ± 2.5
298.15 K, 60790 kPa, x2 = 0.7007 | – | 1506.5 ± 2.5
298.15 K, 75990 kPa, x2 = 0.1014 | – | 1618.2 ± 2.5
298.15 K, 75990 kPa, x2 = 0.4999 | – | 1586.8 ± 2.5
298.15 K, 75990 kPa, x2 = 0.5003 | – | 1587 ± 2.5
298.15 K, 75990 kPa, x2 = 0.7007 | – | 1566.5 ± 2.5
298.15 K, 75990 kPa, x2 = 0.9391 | – | 1538.7 ± 2.5
298.15 K, 91180 kPa, x2 = 0.1014 | – | 1671 ± 2.5
298.15 K, 91180 kPa, x2 = 0.4999 | – | 1641.7 ± 2.6
